In PubChem BioAssay AID624491 (Broad Institute, 2012):

Each compound was assayed on D54 ERlucT glycosylation luciferase reporter, luminescence, 24 h (assay: blockers of NLG process in reporter cells – D54 ERlucT cells, luminescence, cherry-picks, dose response (AID 624491);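 also: signal gain reflects blocked N-linked glycosylation of a luciferase reporter; actives raise luciferase signal so AC26 marks activators of the reporter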).

Q: For `COCCN(C(=O)CCl)C(C(=O)NC1CCCCC1)c1ccccc1C` (centres undefined), which AC26 is on record?
A: 3340 nM

Q: Which AC26 does the source give for `COc1ccc(S(=O)(=O)Nc2c(C(=O)O)[nH]c3ccc(OC)cc23)c(OC)c1` here?
A: 5750 nM

Q: For `CCCCOc1ccccc1C1CC(=O)NC2=C1C(=O)CCC2` (centres undefined), which AC26 is on record?
A: 1320 nM

Q: Which AC26 does the source give for `Cc1ccc(C(=O)N2CCC(C(=O)Nc3cccc([N+](=O)[O-])c3)CC2)cc1` here?
A: 804 nM

Q: With `Cc1cccn2c(=O)c3cc(C(=O)NCc4ccco4)c(=N)n(CCc4ccccc4)c3nc12` as the compound, how does the AC26 read?
A: 1170 nM

Q: Which AC26 does the source give for `NC(=O)CC(NC(=O)Cc1ccc(Br)cc1)c1ccc(NC2CC3CCC2C3)c([N+](=O)[O-])c1` (centres undefined) here?
A: 32.6 nM

Q: For `C=CCNc1nc2cc(-c3ccccc3C)sc2c(=O)n1C`, which AC26 is on record?
A: 2810 nM

Q: For `COc1ccc(-c2oc3cc(O)c(OC)c(O)c3c(=O)c2OC)cc1O`, which AC26 is on record?
A: 246 nM

Q: How did the AC26 turn out when `OCCCCCN=c1cc(-c2ccccc2)oc2ccc(Cl)cc12` was run?
A: 1970 nM

Q: `Oc1ccc(Nc2nc(N3CCCC3)c3ccccc3n2)cc1` was tested. Which AC26 did it give?
A: 335 nM

Q: With `O=C(N/N=C/c1cccc(C(F)(F)F)c1)C1CCN(c2ncc(C(F)(F)F)cc2Cl)CC1` as the compound, how does the AC26 read?
A: 5890 nM

Q: With `C[C@H](CO)N1C[C@H](C)[C@@H](CN(C)S(=O)(=O)c2ccccc2)Oc2c(NC(=O)Cc3ccccc3)cccc2C1=O` as the compound, how does the AC26 read?
A: 3400 nM

Q: For `O=C(c1ccc(CS(=O)c2ccccc2Cl)o1)N1CCN(c2ccccn2)CC1` (centres undefined), which AC26 is on record?
A: 5990 nM

Q: `O=c1[nH]c(=O)n([C@H]2C[C@H](O)[C@@H](CO)O2)cc1Br` was tested. Which AC26 did it give?
A: 1690 nM

Q: With `Cc1cccc2cc(/C=C/C(=O)c3ccco3)c(Cl)nc12` as the compound, how does the AC26 read?
A: 3830 nM

Q: `Cn1nc(C(F)(F)F)c(/C=N/OC(=O)c2ccccc2Cl)c1SCc1ccc(Cl)cc1` was tested. Which AC26 did it give?
A: 3940 nM

Q: `CC[C@H](C)C(=O)O[C@H]1C[C@@H](C)C=C2C=C[C@H](C)[C@H](CC[C@@H]3C[C@@H](O)CC(=O)O3)[C@H]21` was tested. Which AC26 did it give?
A: 301 nM

Q: With `O=C(Cn1ncc(Cl)c(Cl)c1=O)N1CCOCC1` as the compound, how does the AC26 read?
A: 1220 nM

Q: How did the AC26 turn out when `Cc1ccc(C)c(OCC(O)CN2CCN(CCN3C(=O)c4cccc5cccc(c45)C3=O)CC2)c1` (centres undefined) was run?
A: 755 nM

Q: `COc1cc(-c2nnc(SCC3(c4ccc(Br)cc4)OCCO3)o2)cc(OC)c1OC` was tested. Which AC26 did it give?
A: 210 nM

Q: With `COC(=O)Nc1nc2ccc(-c3n[nH]c(=O)c4ccccc34)cc2[nH]1` as the compound, how does the AC26 read?
A: 3350 nM

Q: For `CCc1nn2c(NCCCO)cc(C)nc2c1-c1ccc(F)cc1`, which AC26 is on record?
A: 1630 nM

Q: For `COc1ccc(CC(=O)NCc2ccc(-n3cccc3)cc2)cc1OC`, which AC26 is on record?
A: 825 nM

Q: With `Cc1ccc(Cl)cc1N1CCN(S(=O)(=O)c2ccc(-c3ccc(=O)[nH]n3)o2)CC1` as the compound, how does the AC26 read?
A: 5210 nM
